Assay [1] deals with preclinical breast and sarcoma models. In words: Single agent activity in preclinical breast and sarcoma models. The assay is classed as in vivo. Conditions: authors' response to reviewers. An excerpt:
EMBO Molecular Medicine Peer Review Process File - EMM-2014-04368 levels vary based on the datasets analyzed. In addition, as far as DDX3 protein levels are concerned, […]
making it difficult to interpret the gene expression datasets as an absolute unit to that of the protein […]
3) A more detailed description of expression in other normal tissues would help anticipate toxicities.
Response: It is difficult to ascertain if the levels of DDX3 in the normal cells will directly correlate to toxicities levels following RK-33 treatment. It is possible that normal cells are not dependent on DDX3 for its cellular biogenesis as compared to the cancer cells. This could be one of the reasons why there is no observable toxicity within our experimental setting. Also, as a first step to determine toxicity for a novel drug, it is essential to test the effect in small animals like mouse or rat. Based on these criteria, we observed no toxicity in mouse at higher levels than the therapeutic dose to kill […]
impart any visible side effects.
4) Legends for Figure 2 are mislabeled.
Response: We thank the reviewer for pointing this out. We have rectified this in the revised […]
5) What is the subsrate in the helicase assay. Have the authors explored RNA secondary (e.g. G-quadruplex or hairpin structures)? […]
10) Figure 7. Please add a quantification of cell death. […]

For assay [2], the system named is A549 human lung cancer cells. In words: Orthotopic A549 lung cancer model with radiation. The assay is classed as in vivo, athymic NCr-nu/nu mice. To be noted: i.p. RK-33 with radiation, schedule as Fig6C. As for the experimental part: Athymic NCr-nu/nu female mice 4–5 weeks old were purchased from NCI Frederick. A total of 1 × 10^6 A549 cells were injected in the tail vein of ten mice. Treatment (five animals per group) was started 4 weeks after inoculation of tumor cells. Since tumor volumes could not be determined by micro-CT, tumor burden was established at necropsy by histopathology, 8 weeks after inoculation of tumor cells. All five lung lobes were paraffin-embedded and mid-lung sections were stained with H&E. Slides were digitalized; lung and tumor surface area was calculated with ImageScope (Aperio Technologies, Vista, CA, USA), as tumor burden = tumor surface/lung surface.
(§1) Cells were irradiated at room temperature with 0.5 Gy/min to the desired dose using a Gammacell 40 ^137Cs irradiator. For in vivo experiments, mice were treated using the Small Animal Radiation Research Platform (Wong et al, [2008]). The tumors were irradiated with a circular beam of 1 cm diameter.

In assay [3] the test system is Twist1/Kras^G12D lung tumors. Briefly: Twist1/KrasG12D autochthonous lung tumor model, hypofractionated radiation (SABR). Type of assay: in vivo, mouse. How it is done:
Inducible Twist1/Kras^G12D transgenic mice in the FVB/N inbred background were of the genotype: CCSP-rtTA/tetO-KrasG12D/Twist1-tetO-luc (Tran et al, [2012]). All the mice were weaned 3–4 weeks of age and then placed on dox at 4–6 weeks of age. Mice were treated with similar levels of tumor burden per micro-CT and were typically 20–30 weeks old. Mice were treated as in Fig6C and H. Each group consisted of mice, of which multiple index tumors were followed in time by micro-CT and quantified by a board-certified radiation oncologist (JZ) in a blinded fashion. Bi-dimensional measurements were made on tumors using serial examinations and tumor volumes calculated using the equation Volume = π/6 × 1.65 (length × width) × 3/2. Volumes were normalized to the starting volume, t = 0 before treatment. For 15-Gy SABR experiments, the breakdown of animal usage is (1) RT = 3 female mice, (2) RK-33 = 3 females and 1 male mice, (3) carboplatin = 3 male mice, (4) RT + carboplatin = 3 female mice, and (5) RT + RK-33 = 5 female mice. For the 3-Gy XRT experiments, animals used were (1) RT = 3 female and three male mice and (2) RT + RK-33 = four female and three male mice.
as §1
The mice underwent micro-CT imaging by use of the Small Animal Radiation Research Platform (SARRP) irradiator described earlier (Wong et al, [2008]). The uncollimated primary beam was used for imaging. A total of 1,800 projections were acquired at approximately 0.2 angular increments. The Feldkamp CBCT algorithm was used for reconstruction. Tumor volumes were quantified from the CT dataset with Pinnacle3 software v.8.1y (Philips Inc, Madison, WI) as described previously (Tran et al, [2011]; Zeng et al, [2013]). Briefly, we viewed 2D images in sagittal, coronal, and transverse views to detect tumors and track them over time. […]

For assay [4], the target named is DDX3 (Homo sapiens, UniProt O00571). Briefly: Biotin bead pull-down assay with biotinylated RK-33 (AK-298, SK-153), immunoblot. Type of assay: binding. Conditions: biotinylated RK-33 molecules, 10 μM. How it is done:
Mean from 3 replicates with SD. • J, K Colony-forming assay of A549 and H3255 cells treated with RK-33 and with various doses of radiation 4 h later. Curves were fitted with a quadratic polynomial equation. Mean from 2 replicates with SD. P-values were determined by the extra sum of squares F-test. Source data are available online for this figure.
Two plates of 70% confluent cells were lysed with IP lysis buffer (Tris–HCl (pH 7.4) 25 mM, NaCl 150 mM, EDTA 1 mM, NP-40 1%, glycerol 5%, protease inhibitor). […] Streptavidin beads were added and incubated for 1 h at room temperature. The biotin-bead–RK-33 complex was extracted with a magnetic stand and washed seven times with PBS. Proteins were analyzed by immunoblot.
A general note: A western blot detects proteins with antibodies after separation by electrophoresis.

Chain of DDX3 (O00571 2-582): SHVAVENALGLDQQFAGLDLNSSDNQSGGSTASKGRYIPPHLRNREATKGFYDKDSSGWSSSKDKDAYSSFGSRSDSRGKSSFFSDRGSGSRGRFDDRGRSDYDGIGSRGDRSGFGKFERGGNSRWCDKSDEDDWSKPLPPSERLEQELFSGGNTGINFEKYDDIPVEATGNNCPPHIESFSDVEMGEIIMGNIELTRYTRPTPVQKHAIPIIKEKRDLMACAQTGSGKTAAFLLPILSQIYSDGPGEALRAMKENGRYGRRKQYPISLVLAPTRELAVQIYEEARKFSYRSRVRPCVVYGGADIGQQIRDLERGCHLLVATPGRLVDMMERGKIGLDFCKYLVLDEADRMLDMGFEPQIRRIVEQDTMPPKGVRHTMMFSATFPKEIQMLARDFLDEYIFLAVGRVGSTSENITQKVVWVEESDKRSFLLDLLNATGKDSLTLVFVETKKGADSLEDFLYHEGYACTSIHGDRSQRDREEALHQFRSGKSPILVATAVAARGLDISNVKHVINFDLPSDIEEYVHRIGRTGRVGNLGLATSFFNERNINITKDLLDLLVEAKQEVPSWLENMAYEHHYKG

“diimidazo[4,5-d:4′,5′-f]-[1,3]diazepine [RK-33]”: the single agent activity entry in assay [1] is “delayed tumor growth”. Besides, the “enhancement of radiation-induced tumor regression (tumor burden)” value in assay [2] stood at 2.6 fold. Further, the “Ki67 positive cells in lung tumors” value in assay [3] (RK-33 and radiation treatment) is “decrease in Ki67 positive cells”. Also, the “enhancement of the radiation effect (tumor volume by micro-CT)” value in assay [3] (i.p. RK-33 with 15-Gy SABR, 1 week after treatment) came to 3.7 fold. The “radiation sensitization relative to that caused by carboplatin” value in assay [3] (with SABR) came out at 1.5 fold. In assay [4], the “binding to DDX3 in pull-down” value is listed as “binds specifically to DDX3”.

Values taken from publication PMC4492822 (EMBO Molecular Medicine, 2015).
